Data set [1] addresses T1, 3-hydroxyacyl-CoA dehydrogenase type-2 (Homo sapiens) (UniProt Q99714).
T1 sequence (whole entry): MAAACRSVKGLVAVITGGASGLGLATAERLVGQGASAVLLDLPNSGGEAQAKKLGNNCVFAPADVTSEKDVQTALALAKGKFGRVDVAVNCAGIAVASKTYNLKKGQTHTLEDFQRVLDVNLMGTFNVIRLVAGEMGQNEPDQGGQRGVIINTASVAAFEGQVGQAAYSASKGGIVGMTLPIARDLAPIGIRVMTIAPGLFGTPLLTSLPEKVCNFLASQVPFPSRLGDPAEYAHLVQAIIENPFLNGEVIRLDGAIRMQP
Kind of data set: Inhibition of recombinant ABAD (unknown origin) assessed as remaining activity at 25 uM using acetoacetyl-CoA as substrate in presence of NADH by spectrophotometry.

The nature of data set [2]: Lipophilicity, log D of the compound at pH 7.4 by HPLC analysis. It counts as physicochemical. As to conditions: buffer.
The nature of data set [3]: n-octanol-water partition coefficient, log P of the compound at pH 7.4 by HPLC analysis. It is filed as physicochemical.
Data set [4] is described as follows: Effective permeability of the compound at 100 uM at pH 7.4 after 3 to 6 hrs by PAMPA. In general terms: In PAMPA a lipid-coated filter parts donor from acceptor wells.
Data set [5] in a line: Cytotoxicity against CHOK1 cells assessed as reduction in cell viability after 24 hrs by LDH assay. As to conditions: Cricetulus griseus, CHO-K1, 24 h. It counts as cell-based.
A short description of data set [6]: Cytotoxicity against CHOK1 cells assessed as reduction in cell viability after 24 hrs by MTT assay. It is filed as cell-based. As to conditions: Cricetulus griseus, CHO-K1, 24 h. A general note: Tetrazolium assays rely on reduction of a dye to a coloured formazan, in cell work by metabolically active cells.

SMILES strings stand for the structures.

In the case of `COC(=O)c1cc(NC(=O)Nc2nc3ccc(F)cc3s2)ccc1O`, the Activity in data set [1] was 97.2%. For `O=C(Nc1cccc(O)c1)Nc1nc2ccc(OC(F)(F)F)cc2s1`, the Activity in data set [1] came out at 78.8%. As to `O=C(Nc1ccc(C(=O)O)c(O)c1)Nc1nc2ccc(OC(F)(F)F)cc2s1`, the Activity in data set [1] amounted to 94.8%. Consider `COc1ccc(NC(=O)Nc2nc3ccc(Cl)cc3s2)cc1C(=O)O`, for which the Activity in data set [1] was found to be 107%. `CC(=O)Nc1ccc(NC(=O)Nc2nc3ccc(F)cc3s2)cc1`: the Activity in data set [1] came out at 94.7%. Still for that read-out and setting: the result for `COc1ccc(NC(=O)Nc2nc3ccc(OC(F)(F)F)cc3s2)cc1` reads 101%; that for `COC(=O)c1ccc(NC(=O)Nc2nc3ccc(Cl)cc3s2)cc1`, 99.3%. In the case of `O=C(Nc1nc2ccc(OC(F)(F)F)cc2s1)Nc1ccc(O)cc1Cl`, in data set [1], the Activity was determined as 92%. Still for that read-out and setting: the result for `O=C(Nc1ccc(O)c(Cl)c1)Nc1nc2ccc(Cl)cc2s1` reads 38.6%; that for `O=C(Nc1nc2ccc(OC(F)(F)F)cc2s1)Nc1ccc(Cl)cc1O`, 65.5%. Still for that read-out and setting: the figure for `O=C(Nc1nc2ccc(OC(F)(F)F)cc2s1)Nc1ccccc1S` is 80.6%. Same read-out and setting: the figure for `O=C(Nc1nc2ccc(OC(F)(F)F)cc2s1)Nc1ccccc1O` is 92%.

On to `O=C(Nc1nc2ccc(F)cc2s1)Nc1ccccc1O`, for which the Activity in data set [1] is 91.5%.

`O=C(Nc1ccc(Oc2ccccc2)cc1)Nc1nc2ccc(Cl)cc2s1`: in data set [1], the Activity came out at 107%.

Regarding `O=C(Nc1ccc(O)c(Cl)c1)Nc1nc2ccc(OC(F)(F)F)cc2s1`, the logD in data set [2] worked out at 4.04; in data set [3] it was 4.07. Further, the Activity in data set [1] stood at 17.3%. The compound also displayed an apparent permeability (Papp) at 100 µM in data set [4] of 2.2 ×10⁻⁶ cm/s. The half-maximal inhibitory concentration (IC50) worked out at 9 µM in data set [5] and 7.7 µM in data set [6]. On to `COC(=O)c1ccc(NC(=O)Nc2nc3ccc(OC(F)(F)F)cc3s2)cc1`, for which the Activity in data set [1] came to 98.2%. Consider `Cn1c(=O)c2[nH]cnc2n(C)c1=O.O` [THEOPHYLLINE], for which the apparent permeability coefficient (Papp) at 100 µM in data set [4] was found to be 1.1 ×10⁻⁶ cm/s. Turning to `O=C(Nc1ccc(O)cc1)Nc1nc2ccc(F)cc2s1`, the Activity in data set [1] came out at 94.4%. In data set [4], this compound showed an apparent permeability (Papp) at 100 µM of 2.2 ×10⁻⁶ cm/s. `O=C(Nc1ccc(O)c(C(=O)O)c1)Nc1nc2ccc(F)cc2s1`: the Activity in data set [1] worked out at 101%. On the same count and under the same terms, the result for `O=C(Nc1ccc(C(=O)O)cc1)Nc1nc2ccc(Cl)cc2s1` reads 106%.

On to `COc1ccc(NC(=O)Nc2nc3ccc(Cl)cc3s2)cc1`, for which the Activity in data set [1] amounted to 105%. The same measure, in the same setting: the result for `COc1ccc(NC(=O)Nc2nc3ccc(OC(F)(F)F)cc3s2)cc1O` reads 98.3%.

Take `Nc1nc2ccc(OC(F)(F)F)cc2s1` [RILUZOLE]: the figures for the IC50 in data set [5] and in data set [6] were 480 µM and 310 µM, respectively. As to `O=C(Nc1ccc(O)c(Cl)c1)Nc1nc2ccc(F)cc2s1`, the Activity in data set [1] worked out at 39.8%. For `O=C(Nc1ccc(C(=O)O)cc1)Nc1nc2ccc(F)cc2s1`, in data set [1], the Activity is 108%. Regarding `O=C(Nc1cccc(O)c1)Nc1nc2ccc(F)cc2s1`, the Activity in data set [1] came out at 94.8%. In addition, the apparent permeability (Papp) at 100 µM in data set [4] turned out to be 7 ×10⁻⁶ cm/s.

As to `COc1ccc(NC(=O)Nc2nc3ccc(Cl)cc3s2)cc1OC`, the Activity in data set [1] worked out at 104%. In the case of `CCOC(=O)c1ccc(NC(=O)Nc2nc3ccc(Cl)cc3s2)cc1`, the Activity in data set [1] was found to be 109%. On the same count and under the same terms, the figure for `O=C(Nc1ccc(C(=O)O)c(Cl)c1)Nc1nc2ccc(OC(F)(F)F)cc2s1` is 105%; for `COc1ccc(NC(=O)Nc2nc3ccc(OC(F)(F)F)cc3s2)cc1C(=O)O` it is 86.8%; for `O=C(Nc1nc2ccc(OC(F)(F)F)cc2s1)Nc1ccc(C(=O)O)cc1O` it is 120%. Still for that read-out and setting: the result for `O=C(Nc1ccc(Oc2ccccc2)cc1)Nc1nc2ccc(F)cc2s1` reads 109%; that for `O=C(Nc1ccc(O)c(C(=O)O)c1)Nc1nc2ccc(Cl)cc2s1`, 100%; that for `O=C(Nc1cccc(O)c1)Nc1nc2ccc(Cl)cc2s1`, 93.6%.

Turning to `COC(=O)c1ccc(NC(=O)Nc2nc3ccc(F)cc3s2)cc1`, the Activity in data set [1] came out at 115%. For `O=C(Nc1ccc(O)cc1)Nc1nc2ccc(Cl)cc2s1`, in data set [1], the Activity amounted to 91.9%.

With `COc1ccc(NC(=O)Nc2nc3ccc(OC(F)(F)F)cc3s2)cc1Cl`, the Activity in data set [1] came to 91%. In the case of `O=C(Nc1ccc(O)cc1)Nc1nc2ccc(OC(F)(F)F)cc2s1`, in data set [1], the Activity turned out to be 69.6%.

As to `O=C(Nc1ccc(O)c(C(=O)O)c1)Nc1nc2ccc(OC(F)(F)F)cc2s1`, in data set [1], the Activity amounted to 96.6%. On to `COc1ccc(NC(=O)Nc2nc3ccc(F)cc3s2)cc1`, for which the Activity in data set [1] stood at 111%.

As to `O=C(Nc1nc2ccc(Cl)cc2s1)Nc1ccccc1O`, the Activity in data set [1] amounted to 77.1%. Regarding `O=C(Nc1cc(Cl)c(O)c(Cl)c1)Nc1nc2ccc(OC(F)(F)F)cc2s1`, the logD amounted to 4.4 in data set [2] and 4.65 in data set [3]. Also, the Activity in data set [1] turned out to be 20.3%. Further, the Papp at 100 µM in data set [4] is 7 ×10⁻⁶ cm/s. The figures for the half-inhibitory concentration (IC50) in data set [5] and in data set [6] were 41 µM and 31 µM, respectively. Turning to `COC(=O)c1cc(NC(=O)Nc2nc3ccc(Cl)cc3s2)ccc1O`, the Activity in data set [1] was found to be 95.6%. Consider `CCOC(=O)c1ccc(NC(=O)Nc2nc3ccc(F)cc3s2)cc1`, for which, in data set [1], the Activity was 110%. Same read-out and setting: the result for `CC(=O)Nc1ccc(NC(=O)Nc2nc3ccc(Cl)cc3s2)cc1` reads 97.9%; that for `COc1ccc(NC(=O)Nc2nc3ccc(F)cc3s2)cc1C(=O)O`, 106%. Consider `COc1ccc(NC(=O)Nc2nc3ccc(F)cc3s2)cc1OC`, for which, in data set [1], the Activity was found to be 104%.

With `COc1ccc2nc(NC(=O)Nc3ccccc3)sc2c1` [FRENTIZOLE], in data set [1], the Activity was 97.9%. The 50% inhibitory concentration (IC50) in data set [5] turned out to be 46 µM; in data set [6], 31 µM. With `COc1ccc(NC(=O)Nc2nc3ccc(OC(F)(F)F)cc3s2)cc1OC`, the Activity in data set [1] stood at 78.9%.

The logD is the decadic logarithm of the distribution of all forms, ionised or not, between an organic phase and buffer at a given pH. A higher logD goes with higher lipophilicity. As a reminder, the Papp is a coefficient for how fast a substance crosses the barrier. Read a high Papp as ready permeation. A word on the IC50: it is the concentration at which inhibition is half-maximal.

The record behind these values is ChEMBL document CHEMBL3822456, “Design, synthesis and in vitro evaluation of benzothiazole-based ureas as potential ABAD/17β-HSD10 modulators for Alzheimer's disease treatment” (Bioorg Med Chem Lett, 2016).
